Test results as given in the NIST ThermoML archive (doi:10.1016/j.fluid.2010.03.001).
Numbers after ± are expanded uncertainties.

Assays:
[1] = Liquid; for viscosity / mass density: 101.33 kPa; for viscosity: Concentric cylinders viscometry; for mass density: Vibrating tube method; for vapor or sublimation pressure: Ebulliometric method (Recirculating still)
[2] = xn = mol fraction of the nth substance listed; settings: 101 kPa, Liquid, x1 = 1; for viscosity: Concentric cylinders viscometry; for mass density: Vibrating tube method

SMILES | viscosity ([1]; 293.15 K) [mPa·s] | viscosity ([1]; 298.15 K) [mPa·s] | mass density ([1]; 298.15 K) [kg/m3] | viscosity ([1]; 303.15 K) [mPa·s] | mass density ([1]; 303.15 K) [kg/m3] | viscosity ([1]; 313.15 K) [mPa·s] | mass density ([1]; 313.15 K) [kg/m3] | viscosity ([1]; 323.15 K) [mPa·s] | mass density ([1]; 323.15 K) [kg/m3] | viscosity ([1]; 333.15 K) [mPa·s] | mass density ([1]; 333.15 K) [kg/m3] | viscosity ([1]; 343.15 K) [mPa·s] | mass density ([1]; 343.15 K) [kg/m3] | viscosity ([1]; 353.15 K) [mPa·s] | mass density ([1]; 353.15 K) [kg/m3] | viscosity ([1]; 363.15 K) [mPa·s] | mass density ([1]; 363.15 K) [kg/m3] | viscosity ([1]; 373.15 K) [mPa·s] | mass density ([1]; 373.15 K) [kg/m3] | further results
C=C(C)[C@H]1CC=C(C)CC1 [(R)-1-methyl-4-(1-methylethenyl)cyclohexene] | 0.902 ± 0.014 | 0.89 ± 0.014 | 837.3 ± 1 | 0.793 ± 0.013 | 833.6 ± 1 | 0.702 ± 0.011 | 825.8 ± 1 | 0.628 ± 0.01 | 817.9 ± 1 | 0.566 ± 0.01 | 809.9 ± 0.9 | 0.5 ± 0.009 | 801.9 ± 0.9 | 0.452 ± 0.008 | 793.6 ± 0.9 | 0.413 ± 0.008 | 785.4 ± 0.9 | 0.382 ± 0.007 | 777.1 ± 0.9 | –
CCCCCO [pentan-1-ol] | 4.03 ± 0.04 | 3.48 ± 0.04 | 810.7 ± 0.3 | 3.02 ± 0.03 | 807.2 ± 0.3 | 2.315 ± 0.024 | 799.8 ± 0.3 | 1.801 ± 0.019 | 792.2 ± 0.3 | 1.425 ± 0.015 | 784.3 ± 0.3 | 1.146 ± 0.013 | 776.3 ± 0.3 | 0.935 ± 0.011 | 768 ± 0.3 | 0.772 ± 0.009 | 759.5 ± 0.3 | 0.647 ± 0.008 | 750.6 ± 0.3 | mass density ([1]; 293.15 K): 814.7 ± 0.3 kg/m3; vapor or sublimation pressure ([1]; 328.15 K): 2.3 ± 0.1 kPa; vapor or sublimation pressure ([1]; 329.5 K): 2.5 ± 0.1 kPa; vapor or sublimation pressure ([1]; 333.15 K): 3.1 ± 0.1 kPa; vapor or sublimation pressure ([1]; 338.15 K): 4.2 ± 0.1 kPa; vapor or sublimation pressure ([1]; 341.2 K): 5 ± 0.1 kPa; vapor or sublimation pressure ([1]; 343.15 K): 5.6 ± 0.1 kPa; vapor or sublimation pressure ([1]; 348.75 K): 7.5 ± 0.1 kPa; vapor or sublimation pressure ([1]; 354.37 K): 10 ± 0.1 kPa; vapor or sublimation pressure ([1]; 362.63 K): 15 ± 0.1 kPa; vapor or sublimation pressure ([1]; 368.86 K): 20 ± 0.1 kPa; vapor or sublimation pressure ([1]; 378.2 K): 30 ± 0.1 kPa; vapor or sublimation pressure ([1]; 385.33 K): 40 ± 0.1 kPa; vapor or sublimation pressure ([1]; 391.03 K): 50 ± 0.1 kPa; vapor or sublimation pressure ([1]; 395.87 K): 60 ± 0.2 kPa; vapor or sublimation pressure ([1]; 400.1 K): 70 ± 0.2 kPa; vapor or sublimation pressure ([1]; 403.86 K): 80 ± 0.2 kPa; vapor or sublimation pressure ([1]; 407.25 K): 90 ± 0.2 kPa; vapor or sublimation pressure ([1]; 408.9 K): 95.1 ± 0.2 kPa
CCCCCO [pentan-1-ol] + C=C(C)[C@H]1CC=C(C)CC1 | – | – | – | – | – | – | – | – | – | – | – | – | – | – | – | – | – | – | – | viscosity ([2]; 293.15 K): 4.03 ± 0.04 mPa·s; mass density ([2]; 293.15 K): 814.7 ± 0.3 kg/m3; viscosity ([2]; 303.15 K): 3.02 ± 0.03 mPa·s; mass density ([2]; 303.15 K): 807.2 ± 0.3 kg/m3; viscosity ([2]; 313.15 K): 2.315 ± 0.024 mPa·s; mass density ([2]; 313.15 K): 799.8 ± 0.3 kg/m3; viscosity ([2]; 323.15 K): 1.801 ± 0.019 mPa·s; mass density ([2]; 323.15 K): 792.2 ± 0.3 kg/m3; viscosity ([2]; 333.15 K): 1.425 ± 0.015 mPa·s; mass density ([2]; 333.15 K): 784.3 ± 0.3 kg/m3; viscosity ([2]; 343.15 K): 1.146 ± 0.013 mPa·s; mass density ([2]; 343.15 K): 776.3 ± 0.3 kg/m3; viscosity ([2]; 353.15 K): 0.935 ± 0.011 mPa·s; mass density ([2]; 353.15 K): 768 ± 0.3 kg/m3; viscosity ([2]; 363.15 K): 0.772 ± 0.009 mPa·s; mass density ([2]; 363.15 K): 759.5 ± 0.3 kg/m3; viscosity ([2]; 373.15 K): 0.647 ± 0.008 mPa·s; mass density ([2]; 373.15 K): 750.6 ± 0.3 kg/m3
